Source: patent publication US7842683B2, “Neurotherapeutic compositions and method” (Revaax Pharmaceuticals, LLC, priority 1999, dated 2010)

Experiments:
[1] = tested on: male golden hamsters; test: Resident/intruder paradigm of offensive aggression; format: in vivo, Syrian golden hamsters (Mesocricetus auratus)
[2] = Estimated fluid and brain concentrations after dosing hamsters; format: in vivo, hamster
Protocol: The adult male hamsters used in these studies weighed around 125 g. […] CLAV has a volume of distribution approximating the extracellular fluid volume. The extracellular water content of lean body mass is approximately 22%.
To this end, animals were treated with N-acetyl-beta-aspartyl-glutamic acid (beta-NAAG), a competitive inhibitor of NAALADase (Serval et al., 1992) and tested in the seed finding model of anxiety. The study was similar to that outlined in Section I with one notable exception. […] Beta-NAAG (FW 304) was given in a dose of 3 ng in a volume of 1 μl saline ICV. The average adult hamster brain weights ca. 1.2 g of which 22% is extracellular fluid.

[3] = 50 μg/kg IP, 90 min, thirteen hamsters
[4] = 140 g hamster, IP injection of 14 μg

For `CO[C@@]1(NC(=O)C(C(=O)O)c2ccc(O)cc2)C(=O)N2C(C(=O)O)=C(CSc3nnnn3C)CO[C@@H]21` (stereo partly drawn) [Mox, 7-β-[2-carboxy-2-(4-hydroxyphenyl)acetamido]-7α-methoxy-3-[[(1-methyl-1H-tetrazol-5-yl)thio]methyl]-1-oxa-1-dethia-3-cephem-4-carboxylic acid], the bite latency [1, 3] was “significantly increased”, the contact time [1, 3] was “no significant change” and the flank marking [1, 3] was “no significant change”. The number of bites [1, 3] was “reduced”, the contact time ([1]; 50 mg/kg IP, 90 min) was “significantly reduced” and the flank marking ([1]; 50 mg/kg IP, 90 min) was “did not reach significance”. The number of bites ([1]; 50 mg/kg IP, 90 min, 10 min observation) was “significantly reduced”, the “mean latency to bite” value ([1]; 50 mg/kg IP, 90 min after treatment, 10 min observation, vs saline) was “over six” and the “animals that never bite in the 10 min observation period” value ([1]; dose response, 50 μg) was “three of six”. For the same molecule, the number of bites ([1]; dose response, 50 μg) was “significant reduction”, the “delay of bite latency vs vehicle” value ([1]; dose response, 50 μg/kg) was “over seven” and the contact time ([1]; dose response, 500 μg and 5 mg) was “significantly reduced”. For the same molecule, the bite latency ([1]; dose response, 500 μg and 5.0 mg) was “significantly increased”, the flank marking ([1]; dose response, 0.5-5000 μg/kg, between groups) was “not significantly different” and the “behavioral measures of offensive aggression” value ([1]; dose response, doses of 5.0 μg and less) was “no effect”. For the same molecule, the contact time ([1]; equimolar (90 μM) IP, 90 min) was “no significant treatment effect”, the flank marking ([1]; equimolar (90 μM) IP, 90 min) was “no significant treatment effect” and the number of bites ([1]; equimolar (90 μM) IP, 90 min) was “significantly reduced”. For the same molecule, the latency to bite ([1]; equimolar (90 μM, equal to 50 μg/kg Mox) IP, 90 min) was “significantly delayed”, the “estimated CSF concentration” value [2, 4] was 15 ng/mL and the estimated serum concentration [2, 4] was 0.1 ng/mL. The “estimated (effective minimum) concentration of moxalactam in the brain” value ([2]; following 50 μg/kg, listed as moxalactam) was “about 30 nM”.

For `O=C(O)[C@H]1/C(=C/CO)O[C@@H]2CC(=O)N21` [CLAV, Clavulanic acid], the “contact time with the intruder” value ([1]; CLAV 200 μg/kg IP, 90 min) was “no significant main effect”, the flank marking ([1]; CLAV 200 μg/kg IP, 90 min) was “no significant effect” and the “latency to bite the intruder” value ([1]; CLAV 200 μg/kg IP, 90 min, trend toward significance) was “no significant main effect”. For the same molecule, the “median number of bites” value ([1]; CLAV 200 μg/kg IP, 90 min, thirteen for vehicle) was “six”, the aggressive behavior ([1]; pilot studies, 1.0 μg/kg IP) was “no effect” and the “estimated concentration in extracellular water” value ([2]; CLAV 1.25 ng in 27.5 ml of water (10 ng/kg, 125 g hamster)) was 0.045 ng/mL. For the same molecule, the “estimated concentration in the brain” value ([2]; CLAV 10 ng/kg, CSF/plasma ratio 0.25) was “around 50 μM” and the “estimated concentration in extracellular water (molar)” value ([2]; CLAV 10 ng/kg, formula weight ca. 240) was “about 200 μM”.
